Data: US20210308077A1, “COMBINATIONS INCLUDING BETA-ADRENORECEPTOR AGONISTS FOR TREATMENT OF PARKINSON`S DISEASE AND MOVEMENT DISORDERS” (The Brigham and Women`s Hospital, Inc., priority 2017, published 2021)
Entries after “also recorded” stand apart in the source; their conditions may differ.

Legend:
[1] = pharmacokinetics mouse study (plasma and brain, LC-MS/MS); format: in vivo
Protocol: The clenbuterol pharmacokinetic (PK) study was done in wild-type C57BL/6J male mice by ChemPartner Co., LTD in Shanghai. The study was done with 4 groups of four mice; one control group and three treatment groups with clenbuterol administered via intraperitoneal injection at dosages of 1, 5 and 10 mg/kg once every 24 hours. Following completion of the administration schedule, blood samples were collected at various time points (e.g. 0.25, 2, 8, and 24 hours), from the four mice per group per time point (final time point of 24 hours post injection). Mice were sacrificed following each blood collection and brains were removed and snap frozen. Substantia nigra was utilized for SNCA mRNA and protein analysis, whereas the other portions were used for PK studies. Plasma and brain samples were analyzed by LC-MS/MS for compound concentration at each of three concentrations and at each time point. Standard pharmacokinetic parameters (e.g. AUClast, AUCINF, terminal elimination half-life (t1/2), clearance, volume of distribution, time at maximum observed plasma concentration, etc.) were determined in both plasma and brain tissueby WinNonlin V 6.2 statistics software (Pharsight Corporation, California, USA) using a non-compartmental model.

[2] = system: α-synuclein protein and mRNA in substantia nigra; assay: placebo-controlled trial in wild-type mice, Snca expression in substantia nigra; format: in vivo, mouse
Protocol: Twenty C57BL/6J male mice (8 weeks old) (Jackson Laboratory, Bar Harbor Me.) were used for the placebo-controlled trial. Mice were exposed to a 12-hour light and 12-hour dark cycle, maintained at a constant temperature of 22° C., and were cared for in accordance with the National Institutes of Health Guide for the Care and Use of Laboratory Animals. Clenbuterol was purchased from Sigma (St. Louis, Mo.). Clenbuterol (10 mg/kg, injection volume 10 ml/kg) dissolved in saline was administered to mice (N=10) intraperitoneally. Saline was administered as a vehicle treatment (N=10). Mice were euthanized by CO224 hours post-injection. Brains were removed and snap frozen immediately in dry ice. Further dissections were performed on the frozen tissue to obtain substantia nigra regions. Tissue was then stored at −80° C. until mRNA or protein extraction was performed.
Total RNA from flash-frozen mice brain tissue, rodent primary cells, human neuroblastoma cells and iPSC-derived neuronal cells was isolated using TRIzol® (Life Technologies) following the manufacturer's protocol. RNA concentration was measured using NanoDrop spectrophotometer (Thermo Fisher Scientific, Wilmington, De.). 2 μg of total RNA was reverse transcribed into cDNA using the High Capacity cDNA Reverse Transcription Kit from Applied Biosystems. Quantitative PCR was performed using TaqMan Universal PCR Master Mix (Applied Biosystems) on an ABI 7900HT instrument (Applied Biosystems) as described previously (31). […] Expression values were analyzed using the comparative threshold cycle method (31).
Protein lysis buffer containing 320 mM sucrose, 5 mM NaF, 1 mM Na3VO4, 10 mM Tris (pH 7.4), 1 mM EGTA, and 1 mM EDTA was used for mice brain tissue lysis. […] Total protein concentrations were determined by BCA assay (Thermo Scientific) according to the manufacturer's instructions. Total α-synuclein was quantified using an α-synuclein-specific sandwich ELISA. […]

[3] = system: NPCs carrying the SNCA triplication; assay: Resazurin viability assay in SNCA-triplication NPCs exposed to rotenone; format: cell-based, human; conditions: 20 μM rotenone, 20 μM clenbuterol
Protocol: Patient-derived NPCs carrying the familial SNCA triplication were generated as described previously (28). NPCs were seeded at […] in 96-well plates (Greiner Cellcoat μClear) for HTS plate reader analysis (Polarstar Omega, BMG). For experiments with toxicants and inhibitors, NPCs were cultured under the following conditions for 18 hours unless specified differently in the experiment procedures: Standard NPC growth medium, growth medium plus 20 μM rotenone (Sigma).
For the Plate Reader HTS, each experiment was conducted with 6 replicates per cell line and treatment regimen. NPCs were treated with 20 μM clenbuterol for four days. Signals from individual wells were acquired with integration of fluorescence signals over 1 second duration by bottom read in orbital mode (8-spot measurements with 2 mm radius). Data analysis was performed using BMG Mars software. For data analysis of individual experiments, the mean±SD was plotted using GraphPad7. Non-directional Student's t-test was used for direct statistical comparisons. […]
For the Resazurin assay for reduction potential by NADPH levels, NPCs were prepared as above and then loaded with 3 μM C12-Resazurin (Ex/Em: 563 nm/587 nm) (Life Technologies) in medium (see above), for 30 min at 37° C. […] Relative C12-Resazurin fluorescence intensities were normalized to Hoechst 33342 fluorescence.

[4] = 10 mg/kg intraperitoneal, 24 hours, vs saline, n=10 per group

Q: For `CC(C)(C)NCC(O)c1cc(Cl)c(N)c(Cl)c1` (stereo not shown) [clenbuterol], which brain concentration ([1]; C57BL/6J mice, 10 mg/kg intraperitoneal vs 1 and 5 mg/kg) is on record?
A: highest

Q: And the brain/plasma ratio ([1]; C57BL/6J mice, 1, 5, or 10 mg/kg intraperitoneal, 24 hours)?
A: increased with doses of 1, 5, or 10 mg of drug per kilogram body weight; also recorded: highest brain/plasma ratio

Q: And the blood-brain barrier crossing ([1]; wild type C57BL/6J mice, intraperitoneal)?
A: crossed the blood-brain barrier

Q: What about the “endogenous α-synuclein mRNA in substantia nigra” value [2, 4] of the same molecule?
A: lowered

Q: What about the “endogenous α-synuclein protein in substantia nigra” value [2, 4] of the same molecule?
A: lowered

Q: And the “α-synuclein protein in substantia nigra by Western blotting” value ([2]; anti-α-synuclein antibodies 2F12 and C-20)?
A: confirmed by Western blotting

Q: And the viability [3]?
A: rescued viability
